Measurements taken from patent publication US20230364084A1, “METHODS FOR PREVENTING OR TREATING CONDITIONS RELATED TO PIKFYVE ACTIVITY” (The Regents of the University of Michigan, priority 2020, published 2023).

Experiments:
[1] = test system: prostate cancer cell lines; assay: cell cycle analysis; type: cell-based, human
Method: Cells were seeded in 6-well plates and treated with various drugs for 72 hours. Single cells were fixed with 70% ethanol, stained with propidium iodine, and cell cycle was analyzed by flow cytometry.

[2] = test system: MDA-PCa-146-10 neuroendocrine prostate cancer PDX; assay: MDA-PCa-146-10 patient-derived xenograft; type: in vivo, mouse; conditions: 30 mg/kg
Method: The University of Texas M.D. Anderson Cancer Center (MDACC) patient-derived xenografts (PDX) series has been previously described^62-64. PDXs were derived from men with CRPC undergoing palliative resections using described protocols^65,66. MDA-PCa-146-12 and 146-10 PDX were derived from a patient initially diagnosed with Gleason 3+4=7 prostate adenocarcinoma with an initial PSA of 10.7 ng/ml. […] PDXs were maintained in male SCID mice by surgically implanting 2 mm^3 tumors coated with 100% Matrigel to both flanks of mice. Once tumors reached 100-200 mm^3 in size, mice were randomized and divided into different treatment groups receiving either 30 mg/kg ESK981 or vehicle (ORA-PLUS) by oral gavage 5 days per week.

`CC(C)Cn1c2ccc(Nc3ncccn3)cc2c2c3c(c4c(c21)CCc1nn(C)cc1-4)C(=O)NC3` [ESK981, 13-isobutyl-4-methyl-10-(pyrimidin-2-ylamino)-1,2,4,7,8,13-hexahydro-6H-indazolo[5,4-a]pyrrolo[3,4-c]carbazol-6-one] was tested, and the cell cycle arrest ([1]; 72 hours, increasing concentrations) was “dose-dependent G2/M phase arrest”, the “G2/M arrest compared with other inhibitors” value ([1]; VCaP cells, ESK981 100 nM vs cabozantinib 5 μM, crizotinib 3 μM, enzalutamide 10 μM) was “greater G2/M arrest potential at a lower concentration” and the tumor weights ([2]; day 21) was “significant decreases in tumor weights”. The tumor growth ([2]; oral gavage 5 days per week, SCID mice) was “Significant inhibition of tumor growth”.
